Results from US20210181109A1 (FUJIFILM Corporation, priority 2018, published 2021).

Assays:
[1] = NAL depletion percent, HPLC-fluorescence detection
Experimental: (§1) 1) To a 50 mL vessel, 12.6 mg (±0.1 mg) of NAL is weighed; to this, a 25 mL measuring pipet is used to add 20 mL of 100 mmol/L phosphate buffer (pH: 10.2); and the content is gently stirred using a test tube mixture to achieve dissolution (2 mmol/L NAL solution). 2) To a 500 mL vessel, 149.5 mL of this buffer is added using a 50 mL measuring pipet; to this, 0.5 mL of the above-described 2 mmol/L NAL solution is added; and the content is mixed by inversion to achieve 300-fold dilution (6.667 μmol/L).
(§2) The test substance undiluted solution is defined as an “undiluted solution”, and used. Incidentally, this “undiluted solution” may be appropriately diluted to, for example, 1/10, 1/100, or 1/1000, using an appropriate solvent, and the resultant solution may be used.
(§3) Subsequently, the solution having the maximum dissolution concentration is defined as an “undiluted solution”, and tested. Incidentally, this “undiluted solution” may be appropriately diluted to, for example, 1/10, 1/100, or 1/1000, using an appropriate solvent, and the resultant solution may be used.
(§4) The test substance is prepared at 1 mmol/L in any of solvents that are water, acetonitrile, acetone, and a 5 mass % dimethyl sulfoxide (DMSO)/acetonitrile solution and used as a test substance solution. As the solvent, a solvent in which the test substance dissolves at 1 mmol/L is used; when the test substance is soluble in a plurality of solvents, the solvent is selected in the following order of decreasing precedence: water, acetonitrile, acetone, and 5 mass % DMSO/acetonitrile.
(§5) Test substance solutions are prepared on a 96-well plate (U96 PP-0.5 ML NATURAL, Thermo Fisher Scientific Inc. (NUNC)) mainly using a 12-channel pipette, and a reagent is added in accordance with the following formula.
(§6) Nucleophilic reagent (NAC and NAL): 150 μL
(§7) Test substance solution: 50 μL
(§8) The plate is tightly sealed using a plate sealing (Resistant embossed seal, SHIMADZU GLC Ltd.), and stirred using a plate shaker (Titramax 100, Heidolph Instruments GmbH & CO. KG). The plate is subjected to spinning down using a centrifuge, and then to incubation at 25° C., for 24 hours, in a light-shielded state.
(§9) After the incubation for 24 hours, the plate sealing is removed; to each sample, 50 µL of the reaction stopping solution is added to stop the reaction.
(§10) The HPLC measurement conditions for the nucleophilic reagents are as follows.
(§11) From the average values (each, n=3) of peak areas of the post-reaction unreacted NAC or NAL and the blank-test (after performing the reaction step without addition of the test substances) NAC or NAL, the following formula is used to calculate the depletion percent of NAC or NAL.
(§12) NAL depletion percent (% depletion)=[1−(Average value of peak areas of post-reaction unreacted NAL/Average value of peak areas of blank-test (after performing the reaction step without addition of the test substances) NAL)]×100
(§13) The average value of peak areas of post-reaction unreacted NAL is the average value of areas obtained by measuring three times post-reaction unreacted NAL. The average value of peak areas of blank-test (after performing the reaction step without addition of the test substances) NAL is the average value of areas obtained by measuring three times blank-test (after performing the reaction step without addition of the test substances) NAL.
(§14) The reactions were each performed on a 96-well plate, and the number of samples of each case was set to n=3. In addition, as controls, reaction solutions including the solvent alone were prepared. The reaction solutions were prepared so as to have a NAC or NAL concentration of 5 μmon. To the reaction solutions after the lapse of 24 hours, a trifluoroacetic acid (TFA) aqueous solution was added such that the final concentration became 0.5% (v/v) TFA. Subsequently, HPLC was performed for measurements by two detection methods that were light absorption detection using a photodiode array (PDA) detector, and fluorescence detection using a fluorescence detector.

[2] = Average score of NAC and NAL depletion and prediction of skin allergenicity, fluorescence method; details: for Average score: single substance, test substance solution 1 mmol/L, fluorescence method
Experimental: (§15) The average value (Average Score) of NAC and NAL depletion percents is calculated. In the resultant value, the second decimal place is rounded off.
(§16) Average value (Average Score) of NAC and NAL depletion percents=(NAC depletion percent+NAL depletion percent)/2
(§17) The depletion percent of at least one of NAC or NAL or the average score of the depletion percents of NAC and NAL is calculated, and whether or not the test substances are “allergenic substances” or “non-allergenic substances” is determined:
(§18) (1) in a case of performing evaluation based on the average value of the depletion percent of NAC and the depletion percent of NAL,
(§19) In the following Tables, S represents as being an allergenic substance and NS represents as being a non-allergenic substance.

[3] = Average score of NAC and NAL depletion and prediction of skin allergenicity, UV method; details: for Average score: single substance, test substance solution 1 mmol/L
Experimental: as §15, §16, §17, §18, §19

[4] = NAL depletion percent, HPLC-UV detection (281 nm)
Experimental: as §1, §2, §3, §4, §5, §6, §7, §8, §9, §10, §11, §12, §13, §14

[5] = NAC depletion percent, HPLC-fluorescence detection
Experimental: (§20) 1) To a 50 mL vessel, 11.6 mg (±0.1 mg) of NAC is weighed; to this, a 25 mL measuring pipet is used to add 20 mL of 100 mmol/L phosphate buffer (pH: 8.0); and the content is gently stirred using a test tube mixer to achieve dissolution (2 mmol/L). 2) To a 500 mL vessel, 149.5 mL of this buffer is added using a 50 mL measuring pipet; to this, 0.5 mL of the above-described 2 mmol/L NAC solution is added; and the content is mixed by inversion to achieve 300-fold dilution (6.667 μmon).
as §2, §3, §4, §5, §6, §7, §8, §9, §10, §11
(§21) NAC depletion percent (% depletion)=[1−(Average value of peak areas of post-reaction unreacted NAC/Average value of peak areas of blank-test (after performing the reaction step without addition of the test substances) NAC)]×100
(§22) The average value of peak areas of the post-reaction unreacted NAC is the average value of areas obtained by measuring three times post-reaction unreacted NAC. The average value of peak areas of blank-test (after performing the reaction step without addition of the test substances) NAC is the average value of areas obtained by measuring three times blank-test (after performing the reaction step without addition of the test substances) NAC.
as §14

[6] = NAC depletion percent, HPLC-UV detection (281 nm)
Experimental: as §20, §2, §3, §4, §5, §6, §7, §8, §9, §10, §11, §21, §22, §14

[7] = single substance, test substance solution 1 mmol/L, fluorescence method
[8] = single substance, test substance solution 1 mmol/L, Reference (UV method)
[9] = Fluorescence method, non-allergenic substance
[10] = Fluorescence method, skin allergenicity prediction
[11] = Reference (UV method), skin allergenicity prediction
[12] = Reference (UV method), non-allergenic substance

Structure (SMILES) | NAL depletion (%) [1, 9] | Prediction result [2, 10] | Prediction result [3, 11] | NAL depletion (%) [4, 12] | NAC depletion (%) [5, 9] | NAC depletion (%) [6, 12] | other results
O=C(OCc1ccccc1)c1ccccc1 [Benzyl benzoate] | – | – | – | – | – | – | NAL depletion (%) [1, 7]: 0.3%; Average score [2]: 0.1%; Average score ([3]; Reference (UV method)): 1.4%; NAL depletion (%) [4, 8]: 2.8%; NAC depletion (%) [5, 7]: 0.0%; NAC depletion (%) [6, 8]: 0.0%
O=c1ccc2ccccc2o1 [Coumarin] | 0.4% | NS (NS represents as being a non-allergenic substance) | NS (NS represents as being a non-allergenic substance) | 3.9% | 1.2% | 0.5% | –
CCOC(=O)c1ccccc1C(=O)OCC [Diethyl phthalate] | 0.2% | NS (NS represents as being a non-allergenic substance) | NS (NS represents as being a non-allergenic substance) | 1.7% | 0.0% | 0.0% | –
CC(C)=CCCC(C)=CCCC(C)=CC=O [Farnesal] | – | – | – | – | – | – | NAL depletion (%) [1, 7]: 4.9%; Prediction result [2]: S (key: S represents as being an allergenic substance; NS represents as being a non-allergenic substance); Average score [2]: 13.6%; Prediction result [3]: S (key: S represents as being an allergenic substance; NS represents as being a non-allergenic substance); Average score ([3]; Reference (UV method)): 13.0%; NAL depletion (%) [4, 8]: 8.8%; NAC depletion (%) [5, 7]: 22.4%; NAC depletion (%) [6, 8]: 17.2%
OCC(O)CO [Glycerol] | 0.0% | NS (NS represents as being a non-allergenic substance) | NS (NS represents as being a non-allergenic substance) | 0.7% | 0.2% | 0.3% | –
CCCCCC [Hexane] | – | NS (NS represents as being a non-allergenic substance) | NS (NS represents as being a non-allergenic substance) | – | – | – | NAL depletion (%) [1]: 0.0%; NAL depletion (%) [4]: 0.9%; NAC depletion (%) [5]: 0.0%; NAC depletion (%) [6]: 0.2%
CC(C)O [Isopropanol] | 4.6% | NS (NS represents as being a non-allergenic substance) | NS (NS represents as being a non-allergenic substance) | 2.8% | 1.1% | 0.1% | –
CCCCCCCCCCCCCC(=O)OC(C)C [Isopropyl myristate] | 5.8% | NS (NS represents as being a non-allergenic substance) | NS (NS represents as being a non-allergenic substance) | 1.8% | 0.4% | 0.0% | –
CC(O)C(=O)O (stereo not shown) [Lactic acid] | 0.0% | NS (NS represents as being a non-allergenic substance) | NS (NS represents as being a non-allergenic substance) | 2.8% | 1.4% | 0.0% | –
CC(C=O)Cc1ccc(C(C)(C)C)cc1 (stereo not shown) [Lilial] | – | – | – | – | – | – | NAL depletion (%) [1, 7]: 0.2%; Prediction result [2]: S (key: S represents as being an allergenic substance; NS represents as being a non-allergenic substance); Average score [2]: 9.1%; Prediction result [3]: S (key: S represents as being an allergenic substance; NS represents as being a non-allergenic substance); Average score ([3]; Reference (UV method)): 5.4%; NAL depletion (%) [4, 8]: 3.9%; NAC depletion (%) [5, 7]: 18.0%; NAC depletion (%) [6, 8]: 7.0%
COC(=O)c1ccccc1O [Methyl salicylate] | 0.0% | NS (NS represents as being a non-allergenic substance) | NS (NS represents as being a non-allergenic substance) | 0.4% | 0.3% | 0.0% | –
COC(=O)c1ccc(O)cc1 [Methylparaben] | 4.7% | NS (NS represents as being a non-allergenic substance) | NS (NS represents as being a non-allergenic substance) | 1.3% | 0.7% | 0.1% | –
CCCCCCCC(=O)O [Octanoic acid] | 0.0% | NS (NS represents as being a non-allergenic substance) | NS (NS represents as being a non-allergenic substance) | 1.2% | 0.0% | 0.0% | –
O=C(O)C(=O)O [Oxalic acid] | – | – | – | – | – | – | NAL depletion (%) [1, 7]: 0.3%; Average score [2]: 0.1%; Average score ([3]; Reference (UV method)): 1.8%; NAL depletion (%) [4, 8]: 3.6%; NAC depletion (%) [5, 7]: 0.0%; NAC depletion (%) [6, 8]: 0.0%
